Data on 13 compounds can be found in US6300501A, “Histidine-(N-benzyl glycinamide) inhibitors of protein farnesyl transferase” (Warner-Lambert Company, priority 1998, dated 2001).

Where two headings read alike, the source gives them in different places.

Test [1] has as its target T1, SF9 affinity purified rat farnesyl protein transferase (Rattus norvegicus, UniProt Q02293+Q04631).
T1 construct: made in house; host or cells: Sf9 insect cells (baculovirus system inferred from b7)
The test can be described thus: PFT inhibitory activity (radiolabeled farnesyl pyrophosphate, streptavidin bead assay). Format: biochemical. As for the experimental part: The protein:farnesyl transferase (PFT) or farnesyl protein transferase (FPT) inhibitory activity of compounds of the present invention were assayed in HEPES buffer (pH 7.4) containing 5 mM potassium phosphate and 20 μM ZnCl2. The solution also contained 5 mM DTT (dithiothreitol), 5 mM MgCl2, and 0.1% PEG 8000. Assays were performed in 96 well plates (Wallec) and employed solutions composed of varying concentrations of a compound of the present invention in 100% DMSO (dimethylsulfoxide). Upon addition of both substrates, radiolabeled farnesyl pyrophosphate ([1^3 H], specific activity 15-30 Ci/mmol, final concentration 134 nM) and (biotinyl)-Ahe-Thr-Lys-Cys-Val-Ile-Met ([3aS[3a alpha, 4 beta, 6a alpha]-hexahydro-2-oxo-1H-thieno[3,4-d]imidazole-5-pentanoic acid]-[7-aminoheptanoic acid]-Thr-Lys-Cys-Val-Ile-Met) (Ahe is 7-aminoheptanoic acid, Thr is threonine, Lys is lysine, Cys is cysteine, Val is valine, Ile is isoleucine and Met is methionine) (final concentration 0.2 μM), the enzyme reaction was started by addition of SF9 affinity purified rat farnesyl protein transferase. After incubation at 30° C. for 30 minutes, the reaction was terminated by diluting the reaction 2.5-fold with a stop buffer containing 1.5 M magnesium acetate, 0.2 M H3 PO4, 0.5% BSA (bovine serum albumin), and strepavidin beads (Amersham) at a concentration of 1.3 mg/mL. After allowing the plate to settle for 30 minutes at room temperature, radioactivity was quantitated on a microBeta counter (Model 1450, Wallec). The assay was also carried out without 5 mM potassium phosphate.

Test [2] deals with ras farnesylation in ras-transformed cells. The test can be described thus: Gel shift assay. Conditions: ras-transformed cells, 18-hour incubation; read-out: Gel Shift (μM) MED (minimal effective dose to observe inhibition of ras farnesylation). It counts as cell-based. As for the experimental part: Twenty-four hours after planting 2×10^6 ras-transformed cells per treatment condition, the farnesylation inhibitor is added at varying concentrations. Following an 18-hour incubation period, cells are lysed in phosphate-buffered saline containing 1% Triton X-100, 0.5% sodium deoxycholate, and 0.1% SDS (sodium dodecyl sulfate), pH 7.4 in the presence of several protease inhibitors (PMSF (phenylmethylsulfonylfluoride), antipain, leupeptin, pepstatin A, and aprotinin all at 1 μg/mL). Ras protein is immunoprecipitated from the supernatants by the addition of 3 μg v-H-ras Ab-2 (Y13-259 antibody from Oncogene Science). After overnight immunoprecipitation, 30 μL of a 50% protein G-Sepharose slurry (Pharmacia) is added followed by 45-minute incubation. Pellets are resuspended in 2× tris-glycine loading buffer (Novex) containing 5% β-mercaptoethanol and then denatured by 5 minutes boiling prior to electrophoresis on 14% Tris-glycine SDS gels. Using Western transfer techniques, proteins are transferred to nitrocellulose membranes followed by blocking in blocking buffer. Upon overnight incubation with primary antibody (pan-ras Ab-2 from Oncogene Science), an antimouse HRP (horse radish peroxidase) conjugate secondary antibody (Amersham) is employed for detection of the ras protein. Blots are developed using ECL(enhanced chemiluminescence) techniques (Amersham).

For test [3], the system named is H61 cells: NIH transformed 3T3 H-ras cells. The experiment in a line: Clonogenic assay (6 well plates, soft agar). Format: cell-based. How it is done: Clonoaenic Assay (6 well lates)
Sometime previous to setting up an actual test:
1. Make up 1.5% Bacto Agar in Milli-Q water and autoclave.
2. Make up 500 mL 2× DMEM-HG without phenol red by combining the following:
1 bottle DMEM base powder (Sigma D-5030)
Adjust pH to 7.1 with HCL; filter sterilize.
1. Set up makeshift water bath (beaker of water with thermometer, on hot plate) in the hood. Keep water temperature between 37° C. to 43° C.
2. […] 1.5% Bacto Agar for approximately 2 minutes on high, or until completely melted. Then let it cool somewhat before using it. (You can keep it from resolidifying by setting the bottle on the hot plate.) […]
3. Bottom Layer (0.6% agar) Top Layer (0.3% agar)
20% calf serum 20% calf serum
40% Bacto Agar (1.5%) 20% Bacto Agar (1.5%)
Depending on the volume of each layer needed, use either 50 mL conical tubes or 200 mL turnip tubes which can be floated in the "water bath".
4. Add 1 mL of bottom layer agar/medium to each well: deliver 1 mL warm agar/medium to a well; then using the tip of the pipet, spread the agar/medium around to completely cover the bottom. Repeat with next well.
5. Allow the plates to set at room temperature for about 5 minutes until the bottom layer solidifies.
6. Label sterile Falcon 2054 (12×75 mm) tubes and add appropriate volume of drug solutions into them.
7. Aliquot 4 AL of DMSO or drug solution per 1 mL of agar/medium to appropriate tubes; then add the agar/medium/cells to each tube. Always add 1 mL more than will actually be needed. Mix up and down in the pipet (gently); then deliver 1 mL to the center of each well. The upper layer is less viscous, so it will generally spread out over the bottom layer unaided. If necessary, rotate the plane of the plate gently to spread the top layer evenly over the bottom layer.
8. Let plates set for 5 or 10 minutes at room temperature to solidify, then put into 5% CO2, 37° C. incubator.
9. On Day 13, add 0.5 mL of INT (tetrazolium 1 mg/mL in Milli-Q H2 O, filter sterilized) and return plates to incubator.

The mark [4] stands for this setting: HEPES buffer pH 7.4, without 5 mM potassium phosphate, read-out: IC50 (μM) Hepes.
The mark [5] stands for this setting: HEPES buffer pH 7.4 containing 5 mM potassium phosphate, read-out: IC50 (μM) 5 mM K3 PO4 -2.
[6] abbreviates: colonies counted after Day 13, read-out: Clonogenic Assay IC50.
Setting [7] is: 312 h, colonies counted after Day 13, read-out: Clonogenic Assay IC50.

T1 sequence (Q02293 whole entry, one chain of several): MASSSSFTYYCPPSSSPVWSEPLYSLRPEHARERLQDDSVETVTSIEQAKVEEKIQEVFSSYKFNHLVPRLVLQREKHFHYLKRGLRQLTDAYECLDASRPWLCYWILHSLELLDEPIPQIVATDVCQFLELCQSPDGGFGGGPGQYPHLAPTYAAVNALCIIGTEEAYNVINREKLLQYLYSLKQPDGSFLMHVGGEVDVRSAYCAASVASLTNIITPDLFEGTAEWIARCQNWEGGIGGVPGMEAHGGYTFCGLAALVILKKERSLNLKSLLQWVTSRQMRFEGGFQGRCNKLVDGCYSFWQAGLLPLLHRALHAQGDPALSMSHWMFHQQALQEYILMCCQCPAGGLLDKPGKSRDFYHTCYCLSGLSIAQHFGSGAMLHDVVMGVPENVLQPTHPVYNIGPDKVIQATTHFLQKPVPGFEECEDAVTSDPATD

One may read the IC50 as the concentration needed to halve the response being measured. For the compound `O=C(CN(Cc1ccc(OCc2ccccc2)cc1)C(=O)[C@H](Cc1c[nH]cn1)NC(=O)OCc1ccccc1)NCCOCc1ccccc1` [Example 1, (S)-N-[(Phenylmethoxy)carbonyl]-L-histidyl-N-[2-(phenylmethoxy)ethyl]-N. sup.2-[[4-(phenylmethoxy)phenyl]-methyl]alycinamide], the IC50 in test [1] (setting [4]) came out at 7.7 µM; in test [1] (setting [5]), 0.26 µM; in test [3] (average obtained by additional tests, read-out: Clonogenic Assay IC50 (μM), number in parentheses) it was 14.3 µM; in test [3] (setting [6]), 2.7 µM. In addition, in test [2], the minimal effective concentration was 1 µM.
Regarding `CC(CNC(=O)CN(Cc1ccc(OCc2ccccc2)cc1)C(=O)[C@H](Cc1cnc[nH]1)NC(=O)OCc1ccccc1)c1ccccc1N` (some centres unmarked) [Example 21], the IC50 came to 0.16 µM in test [1] (setting [4]), 0.008 µM in test [1] (setting [5]) and 0.3 µM in test [3] (setting [6]). Moreover, in test [2], the minimal effective concentration is 0.05 µM.
On to `COc1ccccc1CN(CC(=O)NCC(C)c1ccccc1)C(=O)[C@H](Cc1c[nH]cn1)NC(=O)OCc1ccccc1` (stereo partly drawn) [Example 33, (S)-(2-(1H-Imidazole-4-yl)-1-{(2-methoxy-benzyl)-[(2-phenyl-propylcarbamoyl)-methyl]-carbamoyl}-ethyl)-carbamic Acid Benzyl Ester], for which the IC50 is 0.5 µM in test [1] (setting [4]), 0.009 µM in test [1] (setting [5]) and 0.36 µM in test [3] (setting [7]). For the same compound, the minimal effective concentration in test [2] turned out to be 0.05 µM.
For `O=C(CN(Cc1ccc(OCc2ccccc2)cc1)C(=O)[C@H](Cc1c[nH]cn1)NC(=O)OCc1ccccc1)NCCc1ccccn1` [Example 8, (S)-[1-{(4-Benzyloxy-benzyl)-[(2-pyridin-2-yl-ethylcarbamoyl)-methyl]-carbamoyl]-2-(1H-imidazole-4-yl)-ethyl]-carbamic Acid Benzyl Ester] the same measures were 7.8 µM, 0.3 µM, greater than 1 µM and 0.2 µM.
As for `CCC(CNC(=O)CN(Cc1ccc(OCc2ccccc2)cc1)C(=O)[C@H](Cc1c[nH]cn1)NC(=O)NCc1ccccc1)c1ccccc1` (stereo partly drawn) [Example 27, (S)-N-(4-Benzyloxy-benzyl)-2-(3-benzyl-ureido)-3-(1H-imidazole-4-yl)-N-[(2-phenyl-butylcarbamoyl)-methyl]-propionamide], the concentration for half-maximal inhibition (IC50) was 0.12 µM in test [1] (setting [4]), 0.014 µM in test [1] (setting [5]) and greater than 1 µM in test [3] (setting [7]). Also, the minimal effective concentration in test [2] was 0.2 µM.
For `COc1ccc(CN(CC(=O)NCC(C)(C)c2ccccc2)C(=O)[C@H](Cc2c[nH]cn2)NC(=O)OCc2ccccc2)cc1` [Example 44, (S)-(2-(1H-Imidazole-4-yl)-1-{(4-methoxy-benzyl)-[(2-methyl-2-phenyl-propylcarbamoyl)-methyl]-carbamoyl}-ethyl)-carbamic Acid Benzyl Ester] the same measures were 0.3 µM, 0.002 µM, 0.36 µM and 0.02 µM.
For the compound `CC(CNC(=O)CN(Cc1ccc(C(F)(F)F)cc1)C(=O)[C@H](Cc1c[nH]cn1)NC(=O)OCc1ccccc1)c1ccccc1` (stereo partly drawn) [Example 38, (S)-{2-(1H-Imidazole-4-yl)-1-[[(2-phenyl-propylcarbamoyl)-methyl]-(4-trifluoromethyl-benzyl)-carbamoyl]-ethyl}-carbamic Acid Benzyl Ester], the IC50 in test [1] (setting [4]) was 1.6 µM; in test [1] (setting [5]), 0.013 µM; in test [3] (setting [7]), 0.22 µM. In addition, the minimal effective concentration in test [2] was 0.2 µM.
The like results for `CC(C)(CNC(=O)CN(Cc1ccc(F)cc1)C(=O)[C@H](Cc1c[nH]cn1)NC(=O)OCc1ccccc1)c1ccccc1` [Example 22, (S)-[1-{(4-Fluoro-benzyl)-[(2-methyl-2-phenyl-propylcarbamoyl)-methyl]-carbamoyl}-2-(1H-imidazole-4-yl)-ethyl]-carbamic Acid Benzyl Ester] were, in that order, 1.2 µM, 0.016 µM, greater than 1 µM and 0.2 µM.
For the compound `CC(C)(CNC(=O)CN(Cc1ccc(OCc2ccccc2)cc1)C(=O)[C@H](Cc1c[nH]cn1)NC(=O)OCc1ccsc1)c1ccccc1` [Example 54, (S)-[1-{(4-Benzyloxy-benzyl)-[(2-methyl-2-henyl-propylcarbamoyl)-methyl]-carbamoyl}-2-(1H-imidazole-4-yl)-ethyl]-carbamic acid thiophen-3-ylmethyl Ester], the IC50 came out at 0.2 µM in test [1] (setting [4]) and 0.0012 µM in test [1] (setting [5]). For the same compound, the minimal effective concentration in test [2] is recorded as 0.2 µM.
For the compound `CC(CNC(=O)CN(Cc1ccc(Br)cc1)C(=O)[C@H](Cc1c[nH]cn1)NC(=O)OCc1ccccc1)c1ccccc1` (stereo partly drawn) [Example 29, (S)-[1-{(4-Bromo-benzyl)-[(2-phenyl-propylcarbamoyl)-methyl]-carbamoyl}-2-(1H-imidazole-4-yl)-ethyl]-carbamic Acid Benzyl Ester], the minimal effective concentration in test [2] is 0.1 µM. Further, in test [3] (setting [7]), the IC50 was greater than 1 µM.
In the case of `CC(C)(CNC(=O)CN(Cc1ccccn1)C(=O)[C@H](Cc1c[nH]cn1)NC(=O)OCc1ccccc1)c1ccccc1` [Example 46, (S)-(2-(1H-Imidazole-4-yl)-1-{[(2-methyl-2-phenyl-propylcarbamoyl)-methyl]-pyridin-2-ylmethyl-carbamoyl}-ethyl)-carbamic Acid Benzyl Ester], the IC50 worked out at 1.98 µM in test [1] (setting [4]) and 0.034 µM in test [1] (setting [5]). In test [2], the minimal effective concentration worked out at 1 µM.
For “[1-{Cyclohexylmethyl-[(2-phenyl-propylcarbamoyl)-methyl]-carbamoyl}-2-(3H-imidazole-4-yl)-ethyl]-carbamic Acid Benzyl Ester [Example 61]”, the results for the half-maximal inhibitory concentration (IC50) in test [1] (setting [4]) and in test [1] (setting [5]) were 0.66 µM and 0.018 µM, respectively. In addition, the minimal effective concentration in test [2] is recorded as 0.01 µM.
The like results for `CC(C)(CNC(=O)CN(Cc1ccccc1OCc1ccncc1)C(=O)[C@H](Cc1c[nH]cn1)NC(=O)OCc1ccccc1)c1ccccc1` [Example 60, (S)-(2-(1H-Imidazole-4-yl)-1-{[(2-methyl-2-phenyl-propylcarbamoyl)-methyl]-[2-(pyridin-4-ylmethoxy)-benzyl]-carbamoyl}-ethyl)-carbamic Acid Benzyl Ester] were, in that order, 0.14 µM, 0.016 µM and 0.05 µM.
